A short description of series [1]: Tolerability / signs of toxicity in immunized mice. It is filed as in vivo. The conditions noted are these: up to 250 μg ppGpp per mouse i.m.
Series [2] relates to humoral response to HBsAg (anti-HBsAg antibodies). Put plainly: Humoral response (anti-HBsAg antibody titers by ELISA) in mice immunized i.m. with HBsAg plus adjuvant. It is filed as in vivo, BALB/c mice. The conditions noted are these: for mean anti-HBsAg titer: 3 weeks post-immunization, approx. 18 nmol compound per mouse with alum and 1 μg HBsAg (FIG. 4); for speed of immune response vs alum control: titers at 2 to 3 weeks, p<0.05, approx. 18 nmol per mouse with alum. On the procedure:
Immunization with HBsAg was conducted on groups of (n=4 or 5) 6- to 8-week old female BALB/c mice (Harlan) as described in, Davis et al., 1996. Each solution contained 1 μg recombinant HBsAg protein (ayw subtype; Genzyme) in a total volume of 50 μl, and 25 μl of each antigen solution was injected into both the left and right tibialis anterior muscles. […] This is the same ratio as used in the commercial hepatitis B vaccines (Davis et al., 1996). […] (Oligonucleotide 1826, previously described in Davis et al., 1996, contains a nuclease-resistant phosphorothioate modified backbone).
The ELISA method was used to evaluate the immune response to a combination of ppGpp and pppGpp and the immune response to ppGpp alone. Kinetics and magnitude of the immune response generated by the nucleotide ppGpp versus an oligonucleotide containing CpG were also determined from the data generated by ELISA. For the isotyping ELISAs the Immunopure Monoclonal Antibody Isotyping Kit I (HRP/ABTS) from Pierce was modified and used.
For measuring humoral response to HBsAg blood was recovered from mice by tail vein bleeds at various times after immunization. The blood was clotted at room temperature for >2 hours, and centrifuged twice at 13 krpm for 10 minutes to separate the serum. Antibodies specific to HBsAg were detected by ELISA, and were quantified relative to a monoclonal antibody against HBsAg (IgG1, 10^10 affinity constant, ad+ay; Genzyme). A solid phase of recombinant HBsAg protein (100 μl of 1 μg/ml per well, overnight at 4° C.) was used to capture anti-HBsAg in the plasma (overnight at 4° C.), which was then detected with HRP-conjugated rabbit anti-mouse IgG+IgM. (1:10,000 in PBS/0.1% Tween/2% BSA; 100 μl per well; Pierce), followed by the sequential addition of 3 3′,5,5′-tetramethylbenzidine solution (50 μl/well, 10 minutes at room temperature; Calbiochem) and 0.25M HCl (50 μl/well). Absorbance was measured at 450 nm within 10 minutes of adding the final reagent. Anti-HB titers are expressed as group means +/−standard error (SE) of individual animals values, which are in turn averages of triplicate assays.

We go through 3 compounds from patent publication US6562801B1, “PpGpp and pppGpp as immunomodulatory agents” (Board of Regents, The University of Texas System, priority 1999, dated 2003).

“Also recorded” adds a separate entry of the source.

In the case of `Nc1nc2c(ncn2[C@@H]2O[C@H](COP(=O)(O)OP(=O)(O)O)[C@@H](OP(=O)(O)OP(=O)(O)O)[C@H]2O)c(=O)[nH]1` [ppGpp, Guanosine 5′-diphosphate 2′(3′)-diphosphate], in series [1], the “tolerability / signs of toxicity (ruffling of fur, diarrhea)” value is “well tolerated; also recorded: no signs of toxicity were observed”. Further, the “effect upon the humoral response” value is listed as “did not have a significant effect” in series [2] (2 μg ppGpp plus alum (FIG. 3C)), “did not have a significant effect” in series [2] (50 μg ppGpp plus alum (FIG. 3E)) and “appeared to suppress the alum-induced adjuvant effect” in series [2] (250 μg ppGpp plus alum (FIG. 3F vs 3B)). The “mean anti-HBsAg titer” value in series [2] worked out at 161 ± 42 ng/mL. Moreover, the “anti-HBsAg titer, ppGpp group vs alum group” value in series [2] (4 weeks post-immunization, ppGpp 10 μg plus alum (FIG. 3B vs 3D)) is listed as “trend was still present”; in series [2] (6 weeks post-immunization, ppGpp 10 μg plus alum), “comparable titer levels”. Further, in series [2] (10 weeks post-immunization, HBsAg plus alum, ppGpp 10 μg), the “maximal anti-HBsAg titer level” value is 2316 ± 1764 ng/mL. The “time course of humoral response, ppGpp vs unmethylated CpG oligonucleotide (oligo 1826)” value in series [2] (ppGpp 10 μg vs oligo 10 μg, with alum (FIG. 5)) is given as “did not appear to differ”. Further, in series [2] (predicted response, dotted line of FIG. 5), the “effect of natural ppGpp vs predicted response of natural CpG oligonucleotide” value is reported as “much greater effect”. Besides, the “speed of immune response vs alum control” value in series [2] is “more rapid immune response”. Further, in series [2] (titration 2, 10, 50, 250 μg ppGpp with alum and 1 μg HBsAg (FIGS. 3C-3F)), the “optimal dosage per mouse” value worked out at 10 µg. Moreover, the “mean ELISA titer of anti-HBsAg antibodies” value in series [2] (two weeks after injection, HBsAg plus alum, ppGpp 10 μg, p=0.04 (FIG. 3B, 3D)) came to 83 ± 37 ng/mL.

Take `Nc1nc2c(ncn2[C@@H]2O[C@H](COP(=O)(O)OP(=O)(O)OP(=O)(O)O)[C@@H](O)[C@H]2O)c(=O)[nH]1` [GTP, reference compound]: in series [2] (10 μg (18 nmol) GTP with alum and HBsAg (FIG. 4E)), the “adjuvant effect on humoral response” value is given as “modest at best”.

On to `Nc1nc2c(ncn2[C@@H]2O[C@H](COP(=O)(O)OP(=O)(O)OP(=O)(O)O)[C@@H](OP(=O)(O)OP(=O)(O)O)[C@H]2O)c(=O)[nH]1` [pppGpp, Guanosine 5′-triphosphate 2′(3′)-diphosphate], for which, in series [2], the “mean anti-HBsAg titer” value came to 136 ± 33 ng/mL and the “speed of immune response vs alum control” value is listed as “more rapid immune response”.
